In patent US20260048047A1, “SMALL-MOLECULE ACTIVATORS OF MYCOBACTERIUM TUBERCULOSIS ADENYLYL CYCLASE” (priority 2022, published 2026):

System: M. tuberculosis
Test: Extracellular activity against M. tuberculosis in cholesterol media (Alamar Blue reduction assay)
Type: cell-based, Mycobacterium tuberculosis
Settings: Mycobacterium tuberculosis, 240 h, 7H12-Cholesterol media, 10 days; read-out: Cholesterol broth: alamar blue--EC50

SMILES | EC50
Cc1nonc1CC(=O)N1CCC(c2nc(-c3ccc(Cl)cc3F)no2)CC1 [Compound 120, 1-(4-(3-(4-chloro-2-fluorophenyl)-1,2,4-oxadiazol-5-yl)piperidin-1-yl)-2-(4-methyl-1,2,5-oxadiazol-3-yl)ethan-1-one] | 370 nM
Cc1nonc1CC(=O)N1CC2CC1CC2c1nc(C2CCC(F)(F)CC2)no1 (stereo not shown) [Compound 196, 1-(5-(3-(4,4-difluorocyclohexyl)-1,2,4-oxadiazol-5-yl)-2-azabicyclo[2.2.1]heptan-2-yl)-2-(4-methyl-1,2,5-oxadiazol-3-yl)ethan-1-one] | 1250 nM
COCc1noc(C2CCN(C(=O)Cc3nonc3C)CC2)n1 [Compound 92, 1-(4-(3-(methoxymethyl)-1,2,4-oxadiazol-5-yl)piperidin-1-yl)-2-(4-methyl-1,2,5-oxadiazol-3-yl)ethan-1-one] | > 10000 nM
Cc1nonc1CC(=O)N1CCC(c2nc(C3CC3(C)C)no2)CC1 (stereo not shown) [Compound 86, 1-(4-(3-(2,2-dimethylcyclopropyl)-1,2,4-oxadiazol-5-yl)piperidin-1-yl)-2-(4-methyl-1,2,5-oxadiazol-3-yl)ethan-1-one] | 1810 nM
Cn1ncnc1CC(=O)N1CCC(c2nc(C3CC4CCC3C4)no2)CC1 (stereo not shown) [Compound 157, 1-(4-(3-(bicyclo[2.2.1]heptan-2-yl)-1,2,4-oxadiazol-5-yl)piperidin-1-yl)-2-(1-methyl-1H-1,2,4-triazol-5-yl)ethan-1-one] | 1860 nM
Cc1nonc1CC(=O)N1CCC(c2nc(C3CC4CCC3C4)no2)CC1 (stereo not shown) [Compound 64, 1-(4-(3-(bicyclo[2.2.1]heptan-2-yl)-1,2,4-oxadiazol-5-yl)piperidin-1-yl)-2-(4-methyl-1,2,5-oxadiazol-3-yl)ethan-1-one] | 447 nM
Cc1noc(CC(=O)N2CCC(c3nc(C4CCC(F)(F)CC4)no3)CC2)n1 [Compound 41, 1-(4-(3-(4,4-difluorocyclohexyl)-1,2,4-oxadiazol-5-yl)piperidin-1-yl)-2-(3-methyl-1,2,4-oxadiazol-5-yl)ethan-1-one] | > 10000 nM
Cc1nonc1CC(=O)N1CCC(n2cc(-c3ccc(F)cc3)nn2)CC1 [Compound 128, 1-(4-(4-(4-fluorophenyl)-1H-1,2,3-triazol-1-yl)piperidin-1-yl)-2-(4-methyl-1,2,5-oxadiazol-3-yl)ethan-1-one] | > 10000 nM
Cn1ncnc1CC(=O)N1CCC(n2nnc(-c3ccc(F)c(Cl)c3)n2)CC1 [Compound 182, 1-(4-(5-(3-chloro-4-fluorophenyl)-2H-tetrazol-2-yl)piperidin-1-yl)-2-(1-methyl-1H-1,2,4-triazol-5-yl)ethan-1-one] | 370 nM
Cc1nonc1CC(=O)N1CCC2(CC1)CC(c1nc(-c3ccc(F)cc3)no1)C2 [Compound 233, 1-(2-(3-(4-fluorophenyl)-1,2,4-oxadiazol-5-yl)-7-azaspiro[3.5]nonan-7-yl)-2-(4-methyl-1,2,5-oxadiazol-3-yl)ethan-1-one] | 450 nM
Cc1noc(CC(=O)N2CCC(n3nnc(-c4ccc(F)cc4)n3)CC2)n1 [Compound 51, 1-(4-(5-(4-fluorophenyl)-2H-tetrazol-2-yl)piperidin-1-yl)-2-(3-methyl-1,2,4-oxadiazol-5-yl)ethan-1-one] | 7640 nM
Cc1nonc1CC(=O)N1CCC(c2nc(C3CCCC(C)(C)C3)no2)CC1 (stereo not shown) [Compound 89, 1-(4-(3-(3,3-dimethylcyclohexyl)-1,2,4-oxadiazol-5-yl)piperidin-1-yl)-2-(4-methyl-1,2,5-oxadiazol-3-yl)ethan-1-one] | 512 nM
Cc1noc(CC(=O)N2CCC(c3nc(C45CCC(CC4)C5)no3)CC2)n1 [Compound 26, 1-(4-(3-(bicyclo[2.2.1]heptan-1-yl)-1,2,4-oxadiazol-5-yl)piperidin-1-yl)-2-(3-methyl-1,2,4-oxadiazol-5-yl)ethan-1-one] | > 25000 nM
Cn1ncnc1CC(=O)N1CCC(c2nc(-c3ccc(F)c(Cl)c3)no2)CC1 [Compound 183, 1-(4-(3-(3-chloro-4-fluorophenyl)-1,2,4-oxadiazol-5-yl)piperidin-1-yl)-2-(1-methyl-1H-1,2,4-triazol-5-yl)ethan-1-one] | 210 nM
Cc1noc(CC(=O)N2CCC(O)(c3nc(-c4ccc(F)cc4)no3)CC2)n1 [Compound 54, 1-(4-(3-(4-fluorophenyl)-1,2,4-oxadiazol-5-yl)-4-hydroxypiperidin-1-yl)-2-(3-methyl-1,2,4-oxadiazol-5-yl)ethan-1-one] | > 10000 nM
Cc1nonc1CC(=O)N1CCC(c2nc(-c3ccc(Cl)c(C(F)(F)F)c3)no2)CC1 [Compound 105, 1-(4-(3-(4-chloro-3-(trifluoromethyl)phenyl)-1,2,4-oxadiazol-5-yl)piperidin-1-yl)-2-(4-methyl-1,2,5-oxadiazol-3-yl)ethan-1-one] | 744 nM
Cc1nonc1CC(=O)N1CCC(c2nc(-c3ccc(C(F)(F)F)cc3)no2)CC1 [Compound 106, 2-(4-methyl-1,2,5-oxadiazol-3-yl)-1-(4-(3-(4-(trifluoromethyl)phenyl)-1,2,4-oxadiazol-5-yl)piperidin-1-yl)ethan-1-one] | 754 nM
Cn1ncnc1CC(=O)N1CCC(c2nc(-c3ccc(F)cc3Cl)no2)CC1 [Compound 179, 1-(4-(3-(2-chloro-4-fluorophenyl)-1,2,4-oxadiazol-5-yl)piperidin-1-yl)-2-(1-methyl-1H-1,2,4-triazol-5-yl)ethan-1-one] | 1970 nM
Cc1nonc1CC(=O)N1CCC(O)(c2nc(-c3ccc(F)cc3)no2)CC1 [Compound 140, 1-(4-(3-(4-fluorophenyl)-1,2,4-oxadiazol-5-yl)-4-hydroxypiperidin-1-yl)-2-(4-methyl-1,2,5-oxadiazol-3-yl)ethan-1-one] | 685 nM
Cc1nnn(CC(=O)N2CCC(c3nc(-c4ccc(Cl)c(F)c4)no3)CC2)n1 [Compound 16, 1-(4-(3-(4-chloro-3-fluorophenyl)-1,2,4-oxadiazol-5-yl)piperidin-1-yl)-2-(5-methyl-2H-tetrazol-2-yl)ethan-1-one] | 790 nM
Cc1nonc1CC(=O)N1CCC(n2nnc(-c3ccc(Cl)cc3)n2)CC1 [Compound 97, 1-(4-(5-(4-chlorophenyl)-2H-tetrazol-2-yl)piperidin-1-yl)-2-(4-methyl-1,2,5-oxadiazol-3-yl)ethan-1-one] | 149 nM
Cc1noc(CC(=O)N2CC3CC2CC3c2nc(-c3ccc(Cl)c(Cl)c3)no2)n1 (stereo not shown) [Compound 190, 1-(5-(3-(3,4-dichlorophenyl)-1,2,4-oxadiazol-5-yl)-2-azabicyclo[2.2.1]heptan-2-yl)-2-(3-methyl-1,2,4-oxadiazol-5-yl)ethan-1-one] | 2900 nM
Cn1ncnc1CC(=O)N1CCC(n2nnc(-c3ccc(Cl)cc3)n2)CC1 [Compound 168, 1-(4-(5-(4-chlorophenyl)-2H-tetrazol-2-yl)piperidin-1-yl)-2-(1-methyl-1H-1,2,4-triazol-5-yl)ethan-1-one] | 472 nM
Cn1ncnc1CC(=O)N1CCC(c2nc(C34CC(C)(C3)C4)no2)CC1 [Compound 162, 2-(1-methyl-1H-1,2,4-triazol-5-yl)-1-(4-(3-(3-methylbicyclo[1.1.1]pentan-1-yl)-1,2,4-oxadiazol-5-yl)piperidin-1-yl)ethan-1-one] | > 10000 nM
Cn1ncnc1CC(=O)N1CC2CC1CC2c1nc(-c2ccc(Cl)cc2)no1 (stereo not shown) [Compound 200, 1-(5-(3-(4-chlorophenyl)-1,2,4-oxadiazol-5-yl)-2-azabicyclo[2.2.1]heptan-2-yl)-2-(1-methyl-1H-1,2,4-triazol-5-yl)ethan-1-one] | 370 nM
